# Laboratory results taken from PubChem BioAssay (NCI).
# Where “and” joins values, the source holds several entries; their conditions need not be identical. Equal entries are not always repeated.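 Assay format: 96-well plates, 48-hour exposure. Here, GI50 denotes the concentration required for 50% inhibition of growth. TGI: total growth inhibition.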
# Experiments:
# Assay in all cases: growth of human tumour cells (NCI), 48 h
# [1] = test system: SK-MEL-28 melanoma
# [2] = test system: OVCAR-8 ovarian
# [3] = test system: SNB-75 CNS
# [4] = test system: SK-OV-3 ovarian
# [5] = test system: SNB-19 CNS
# [6] = test system: M14 melanoma
# [7] = test system: UACC-62 melanoma
# [8] = test system: SF-539 CNS
# [9] = test system: UO-31 renal
# [10] = test system: HS 578T breast
structure (smiles),measurement,setting,value
O=C(c1ccccc1)c1c(-c2ccccc2)sc2nc3ccccc3nc12,TGI,[1],> 100 µM
same,TGI,[2],> 100 µM
same,TGI,[3],85.6 µM
same,TGI,[4],> 100 µM
same,TGI,[5],> 100 µM
same,TGI,[6],> 100 µM
same,TGI,[7],> 100 µM
same,TGI,[8],> 100 µM
COc1ccc(NC(=O)CC/C(CC(=O)C(C)(C)C)=N\NC(=O)C(=O)NN)cc1,TGI,[1],> 100 µM
same,TGI,[9],> 100 µM
same,TGI,[3],> 100 µM
same,TGI,[4],> 100 µM
same,TGI,[5],> 100 µM
same,TGI,[6],> 100 µM
same,TGI,[7],> 100 µM
same,TGI,[8],> 100 µM
CC(C)(C)CC(C)(C)c1cc2c(O)c(c1)Cc1cc(C(C)(C)CC(C)(C)C)cc(c1O)Cc1cc(C(C)(C)CC(C)(C)C)cc(c1O)Cc1cc(C(C)(C)CC(C)(C)C)cc(c1O)Cc1cc(C(C)(C)CC(C)(C)C)cc(c1O)C2,TGI,[1],> 100 µM
same,TGI,[9],> 100 µM
same,TGI,[2],> 100 µM
same,TGI,[3],> 100 µM
same,TGI,[5],> 100 µM
same,TGI,[6],> 100 µM
same,TGI,[7],> 100 µM
same,TGI,[8],> 100 µM
COc1ccccc1C(O)(c1ccccc1)C(O)(c1ccccc1)c1ccccc1OC (stereo not given),TGI,[1],> 100 µM
same,TGI,[9],> 100 µM
same,TGI,[2],> 100 µM
same,TGI,[3],> 100 µM
same,TGI,[4],> 31.6 µM
same,TGI,[5],> 100 µM
same,TGI,[6],> 100 µM
same,TGI,[7],> 100 µM
same,TGI,[8],> 100 µM
O=C1Cc2c([nH]c3ccccc23)-c2ccccc2N1,TGI,[1],> 100 µM
same,TGI,[9],> 100 µM
same,TGI,[2],> 100 µM
same,TGI,[3],> 100 µM
same,TGI,[4],> 100 µM
same,TGI,[5],> 100 µM
same,TGI,[6],> 100 µM
same,TGI,[8],55.2 µM
C[C@]12CC[C@H](OC3OC(CO)C(O)C(O)C3O)C[C@H]1CC[C@@H]1[C@@H]2CC[C@]2(C)[C@@H](C3=CCOC3=O)CC[C@]12O (stereo not given in full),GI50,[1],> 100 µM
same,TGI,[1],50 µM and > 100 µM
same,GI50,[9],> 100 µM
same,TGI,[9],50 µM and > 100 µM
same,TGI,[3],31.6 µM and > 100 µM
same,GI50,[4],> 100 µM
same,TGI,[4],> 100 µM
same,GI50,[5],23.4 µM and > 100 µM
same,TGI,[5],50 µM and > 100 µM
same,TGI,[10],> 100 µM
same,TGI,[6],> 100 µM
same,TGI,[7],30.8 µM and > 100 µM
same,GI50,[8],0.198 µM
same,TGI,[8],7.96 µM and 1.6 µM
COc1ccc(-c2cc(=O)c3ccccc3o2)cc1N,TGI,[1],> 100 µM
same,TGI,[9],> 100 µM
same,TGI,[2],> 100 µM
same,TGI,[3],93.2 µM
same,TGI,[4],> 100 µM
same,TGI,[5],> 100 µM
same,TGI,[6],> 100 µM
same,TGI,[7],> 100 µM
same,TGI,[8],> 100 µM
Cc1cc(=O)oc2c(C)c(O)ccc12,TGI,[1],> 100 µM
same,TGI,[9],> 100 µM
same,TGI,[2],> 100 µM
same,TGI,[3],> 100 µM
same,TGI,[5],> 100 µM
same,TGI,[10],> 100 µM
same,TGI,[6],> 100 µM
same,TGI,[7],> 100 µM
same,TGI,[8],> 100 µM
CN(C)CCNC(=O)c1cccc2nc3cc(Cl)ccc3nc12,TGI,[1],8.27 µM
same,TGI,[9],> 29.1 µM
same,TGI,[2],> 21.3 µM
same,TGI,[3],15.4 µM
same,TGI,[4],> 40.3 µM
same,TGI,[5],16.9 µM
same,TGI,[6],> 21.9 µM
same,TGI,[7],9.67 µM
same,TGI,[8],11.4 µM
C=C(C#N)C1OCC2OC(C)(C)OC21 (stereo not given),TGI,[1],43.2 µM
same,TGI,[9],> 100 µM
same,TGI,[2],48.7 µM
same,TGI,[3],35.9 µM
same,TGI,[4],> 100 µM
same,TGI,[5],> 100 µM
same,TGI,[6],30.5 µM
same,TGI,[7],31.9 µM
same,TGI,[8],30 µM
CC(=O)OC1CCn2nnc(CO)c21 (stereo not given),TGI,[1],> 100 µM
same,TGI,[9],> 100 µM
same,TGI,[2],> 100 µM
same,TGI,[3],> 100 µM
same,TGI,[4],> 100 µM
same,TGI,[5],> 100 µM
same,TGI,[7],> 100 µM
same,TGI,[8],> 100 µM
COc1cc(Nc2nc3ccccc3nc2NS(=O)(=O)c2ccc(NC(=O)c3ccc(C)c(OC)c3)cc2)cc(OC)c1,TGI,[9],9.07 µM and 46.1 µM and > 5.04 µM
same,GI50,[2],4.19 µM and 20.5 µM and 2.82 µM
same,TGI,[2],> 100 µM
same,GI50,[3],1.39 µM and 1.51 µM and 0.302 µM
same,TGI,[3],13.3 µM and 20 µM and 2.75 µM
same,GI50,[5],3.14 µM and 19.8 µM and 2.3 µM
same,TGI,[5],31 µM and > 100 µM and > 10 µM
same,TGI,[6],> 100 µM and 94 µM and > 4.68 µM
same,TGI,[8],> 100 µM and 73.7 µM and > 6.59 µM
CN1CC(=O)N(C)c2ncn(Cc3ccccc3)c2C1=O,TGI,[1],> 100 µM
same,TGI,[9],> 100 µM
same,TGI,[2],> 100 µM
same,TGI,[3],> 100 µM
same,TGI,[4],> 100 µM
same,TGI,[5],> 100 µM
same,TGI,[6],> 100 µM
same,TGI,[7],> 100 µM
same,TGI,[8],> 100 µM
c1cc(N2CCCN(c3ccc(C4=NCCCN4)cc3)CC2)ccc1C1=NCCCN1,GI50,[1],> 100 µM
same,TGI,[1],> 100 µM
same,GI50,[9],> 100 µM
same,TGI,[9],> 100 µM
same,GI50,[2],> 100 µM
same,TGI,[2],> 100 µM
same,GI50,[3],> 100 µM
same,TGI,[3],> 100 µM
same,GI50,[5],> 100 µM
same,TGI,[5],> 100 µM
same,GI50,[10],77.7 µM
same,TGI,[10],> 100 µM
same,GI50,[6],> 100 µM
same,TGI,[6],> 100 µM
same,GI50,[7],68.1 µM
same,TGI,[7],> 100 µM
same,GI50,[8],59.4 µM
same,TGI,[8],> 100 µM
Cc1cc(-c2nc3sccn3c2/C=N/N=C(N)N)c(C)s1,GI50,[1],16.5 µM
same,TGI,[1],31.5 µM
same,GI50,[9],21.1 µM
same,TGI,[9],36.9 µM
same,GI50,[2],29.4 µM
same,TGI,[2],57 µM
same,GI50,[3],15 µM
same,TGI,[3],30.2 µM
same,GI50,[4],17.5 µM
same,TGI,[4],32.3 µM
same,GI50,[5],16.2 µM
same,TGI,[5],32.8 µM
same,GI50,[6],15.8 µM
same,TGI,[6],29.3 µM
same,GI50,[7],14.9 µM
same,TGI,[7],28.2 µM
same,GI50,[8],14.3 µM
same,TGI,[8],28.5 µM
COC(=O)CC[C@]1(C)O[C@H]2[C@H]([C@@H](C)CCCC(C)=O)OC(=O)[C@@H]2C[C@H]1O,GI50,[1],> 100 µM
same,TGI,[1],> 100 µM
same,GI50,[9],> 100 µM
same,TGI,[9],> 100 µM
same,GI50,[2],> 100 µM
same,TGI,[2],> 100 µM
same,GI50,[3],> 100 µM
same,TGI,[3],> 100 µM
same,GI50,[4],> 100 µM
same,TGI,[4],> 100 µM
same,GI50,[5],> 100 µM
same,TGI,[5],> 100 µM
same,GI50,[7],> 100 µM
same,TGI,[7],> 100 µM
same,GI50,[8],84.9 µM
same,TGI,[8],> 100 µM
CC(C)[O-].CC(C)[O-].O=C1C=C([O-])C(=O)c2ccccc21.O=C1C=C([O-])C(=O)c2ccccc21.[Ti+4],GI50,[1],> 100 µM
same,TGI,[1],> 100 µM
same,GI50,[9],> 100 µM
same,TGI,[9],> 100 µM
same,GI50,[2],> 100 µM
same,TGI,[2],> 100 µM
same,GI50,[3],17.5 µM
same,TGI,[3],> 100 µM
same,GI50,[4],> 100 µM
same,TGI,[4],> 100 µM
same,GI50,[5],> 100 µM
same,TGI,[5],> 100 µM
same,GI50,[6],17.8 µM
same,TGI,[6],> 100 µM
same,GI50,[7],17.6 µM
same,TGI,[7],> 100 µM
same,GI50,[8],> 100 µM
same,TGI,[8],> 100 µM
Cc1ccc(NC2=C(Cl)C(=O)N(Cc3ccc(Cl)cc3)C2=O)cc1O,GI50,[1],14.8 µM
same,TGI,[1],44.4 µM
same,GI50,[9],17.6 µM
same,TGI,[9],69 µM
same,GI50,[2],7.1 µM
same,TGI,[2],38.6 µM
same,GI50,[4],10.9 µM
same,TGI,[4],32.3 µM
same,GI50,[5],10.8 µM
same,TGI,[5],39 µM
same,GI50,[10],16.4 µM
same,TGI,[10],75.8 µM
same,GI50,[6],13.8 µM
same,TGI,[6],38 µM
same,GI50,[7],17.5 µM
same,TGI,[7],39.4 µM
same,GI50,[8],3.1 µM
same,TGI,[8],16.2 µM
